Measured values taken from patent US4585589A, “Water-soluble alkanoyloxy and alkoxycarbonyloxy rifampicin derivatives, process for its preparation, intermediates, and its pharmaceutical composition as antibacterials” (Gruppo Lepetit S.p.A., priority 1983, dated 1986).
Values after ≈ are worked out from the molar mass of the structure shown. Like-named read-outs stand apart in the source and are kept apart here.

What was measured:
[1] = solubility in water containing 2% ascorbic acid (solution A) and in water containing 2% ascorbic acid and 10% propylene glycol (solution B), with pH of the resulting solutions; assay type: physicochemical
Protocol: The compounds of the present invention show a marked solubility in water as well as in mixtures of water with other pharmaceutically acceptable solvents miscible with water. In particular, the solubility of the compounds of the present invention in comparison with rifampicin was assayed in water containing 2% ascorbic acid (solution A) and in water containing 2% ascorbic acid and 10% propylene glycol (solution B) and the pH of the resulting solutions was recorded.

[2] = tested on: Staphylococcus aureus Tour; assay: antibacterial activity in mice infected with Staphylococcus aureus Tour; assay type: in vivo; settings: sc, values in parentheses as printed, read-out: ED50 against S. aureus Tour
Protocol: As expected, this slight delay in hydrolysis in vivo reflects in a median effective dose (ED50) for the compounds of formula I somewhat higher than for rifampicin. In particular the antibacterial activity of the compounds of the present invention was tested in mice infected with Staphylococcus aureus Tour.

[3] = cited from earlier work
[4] = solution A: water containing 2% ascorbic acid
[5] = water with 2% ascorbic acid, solution A: water containing 2% ascorbic acid, read-out: solubility

| pH of the resulting solution [1, 4] | solubility [1, 5] [mg/mL] | SMILES | ED50 [2] [mg/kg] | further results |
| --- | --- | --- | --- | --- |
| 4.0 | 100 (≈ 116 mM) | CO[C@H]1/C=C/O[C@@]2(C)Oc3c(C)c(OC(C)=O)c4c(O)c(c(/C=N/N5CCN(C)CC5)c(O)c4c3C2=O)NC(=O)/C(C)=C\C=C\[C@H](C)[C@H](O)[C@@H](C)[C@@H](O)[C@@H](C)[C@H](OC(C)=O)[C@@H]1C [Example 4, 3-[[(4-methyl-1-piperazinyl)imino]methyl]rifamycin 8-acetate] | 0.35 | solubility ([1]; organic solvent or mixture, solution B: water containing 2% ascorbic acid and 10% propylene glycol, read-out: solubility): 150 mg/mL (≈ 173 mM); pH of the resulting solution ([1]; solution B: water containing 2% ascorbic acid and 10% propylene glycol): 4.2 |
|  |  | CCC(=O)Oc1c(C)c2c3c4c(O)c(/C=N/N5CCN(C)CC5)c(c(O)c14)NC(=O)/C(C)=C\C=C\[C@H](C)[C@H](O)[C@@H](C)[C@@H](O)[C@@H](C)[C@H](OC(C)=O)[C@H](C)[C@@H](OC)/C=C/O[C@@](C)(O2)C3=O [Example 5, 3-[[(4-methyl-1-piperazinyl)imino]methyl]rifamycin 8-pro-panoate] | 1.2 |  |
|  |  | CCOC(=O)Oc1c(C)c2c3c4c(O)c(/C=N/N5CCN(C)CC5)c(c(O)c14)NC(=O)/C(C)=C\C=C\[C@H](C)[C@H](O)[C@@H](C)[C@@H](O)[C@@H](C)[C@H](OC(C)=O)[C@H](C)[C@@H](OC)/C=C/O[C@@](C)(O2)C3=O [Example 6, 3-[[(4-methyl-1-piperazinyl)imino]methyl]rifamycin 8-ethylcarbonate] | 0.76 |  |
| 4.5 | > 300 | CO[C@H]1/C=C/O[C@@]2(C)Oc3c(C)c(OC(C)=O)c4c(O)c(c(/C=N/N5CCN(C)CC5)c(OC(C)=O)c4c3C2=O)NC(=O)/C(C)=C\C=C\[C@H](C)[C@H](O)[C@@H](C)[C@@H](O)[C@@H](C)[C@H](OC(C)=O)[C@@H]1C [Example 7] | 1.5 |  |
|  |  | CO[C@H]1/C=C/O[C@@]2(C)Oc3c(C)c(O)c4c(O)c(c(/C=N/N5CCN(C)CC5)c(O)c4c3C2=O)NC(=O)/C(C)=C\C=C\[C@H](C)[C@H](O)[C@@H](C)[C@@H](O)[C@@H](C)[C@H](OC(C)=O)[C@@H]1C [rifampicin, 3-[[(4-methyl-1-piperazinyl)imino]methyl]rifamycin] |  | pH of the resulting solution ([1]; in either solution (A or B)): 3.5-3.6; solubility ([1]; water with 2% ascorbic acid): < 50 mg/mL; solubility in various aqueous media [3]: lower than 20 mg/ml |
